Results published in ChEMBL document CHEMBL1201862, “PubChem BioAssay data set” (2004).
Active and inactive are the calls of the source.

Columns and labels:
[1] = A cytotoxicity screen of small molecule inhibitors of the PhoP region in Salmonella typhi identified in the primary screen. [Related pubchem assays: 1850, 1864, 1985 ]; type: functional
[2] = Trypanosoma cruzi growth suppression in host cells – NIH3T3 host cells, beta-gal luminescence, confirmation (AID 2044); type: functional, cell-based;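 note: intracellular parasites grown in NIH/3T3 mouse fibroblasts as host cells; luminescent beta-galactosidase reporter signal from transgenic T. cruzi replicating inside host cells; inhibitors lower the luminescence signal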
[3] = NIH3T3 cell viability loss – ATP luminescence, mouse fibroblasts, counter-screen, dose response (AID 2010); type: functional, cell-based;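 note: cells exposed to compound for about 90 hours before reading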
cells [4] = test: cells
[5] = blockade of melanocortin 4 receptor signaling – cell-based, plate reader, cherry pick, counter-screen for LGR2 antagonist project, dose response (AID 743444); type: functional;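 note: transfected HEK 293 cells stimulated with alpha-MSH peptide; potency of inhibitors of the alpha-MSH evoked signal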
INS1 = test: INS-1E survival protection against cytokine death – cell-based, luminescence, retest, dose response (AID 449756); type: functional; conditions: Rattus norvegicus;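 note: cell death triggered by IL-1 beta plus TNF-alpha plus IFN-gamma mixture; protective hits raise ATP signal compared with cytokine alone wells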
[6] = target: Peroxisome proliferator-activated receptor gamma/Nuclear receptor coactivator 2 (Homo sapiens, UniProt P37231); test: (§1) TR-FRET dose response biochemical High Throughput Screening assay for agonists of the steroid receptor coactivator 2 (SRC-2) recruitment by the peroxisome proliferator-activated receptor gamma (PPAR gamma): non-selective agonists. [Related pubchem assays: 1297, 1032 ]; type: functional
[7] = target: Peroxisome proliferator-activated receptor gamma/Nuclear receptor coactivator 3 (Homo sapiens, UniProt P37231); test: as §1, with “3 (SRC-3)” for “2 (SRC-2)”, “1301 (Confirmation screen.), 1048 (Primary screen.)]” for “1297, 1032 ]”; type: functional
Sequence of Peroxisome proliferator-activated receptor gamma/Nuclear receptor coactivator 3 (P37231 whole entry): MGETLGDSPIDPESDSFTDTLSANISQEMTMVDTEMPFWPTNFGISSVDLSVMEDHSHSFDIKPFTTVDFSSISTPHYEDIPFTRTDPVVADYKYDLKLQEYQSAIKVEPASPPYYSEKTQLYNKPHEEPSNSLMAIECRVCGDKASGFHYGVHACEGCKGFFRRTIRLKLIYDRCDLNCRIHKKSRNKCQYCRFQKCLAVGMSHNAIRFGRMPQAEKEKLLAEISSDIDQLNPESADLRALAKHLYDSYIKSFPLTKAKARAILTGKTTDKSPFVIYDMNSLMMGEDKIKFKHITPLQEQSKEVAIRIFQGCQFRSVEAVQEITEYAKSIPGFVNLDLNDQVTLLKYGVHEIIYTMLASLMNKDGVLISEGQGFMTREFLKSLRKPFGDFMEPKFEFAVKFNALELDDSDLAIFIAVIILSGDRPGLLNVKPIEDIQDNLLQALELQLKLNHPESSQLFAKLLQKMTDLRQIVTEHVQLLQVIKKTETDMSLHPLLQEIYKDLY
Sequence of Peroxisome proliferator-activated receptor gamma/Nuclear receptor coactivator 3 (Q9Y6Q9 whole entry, further chain): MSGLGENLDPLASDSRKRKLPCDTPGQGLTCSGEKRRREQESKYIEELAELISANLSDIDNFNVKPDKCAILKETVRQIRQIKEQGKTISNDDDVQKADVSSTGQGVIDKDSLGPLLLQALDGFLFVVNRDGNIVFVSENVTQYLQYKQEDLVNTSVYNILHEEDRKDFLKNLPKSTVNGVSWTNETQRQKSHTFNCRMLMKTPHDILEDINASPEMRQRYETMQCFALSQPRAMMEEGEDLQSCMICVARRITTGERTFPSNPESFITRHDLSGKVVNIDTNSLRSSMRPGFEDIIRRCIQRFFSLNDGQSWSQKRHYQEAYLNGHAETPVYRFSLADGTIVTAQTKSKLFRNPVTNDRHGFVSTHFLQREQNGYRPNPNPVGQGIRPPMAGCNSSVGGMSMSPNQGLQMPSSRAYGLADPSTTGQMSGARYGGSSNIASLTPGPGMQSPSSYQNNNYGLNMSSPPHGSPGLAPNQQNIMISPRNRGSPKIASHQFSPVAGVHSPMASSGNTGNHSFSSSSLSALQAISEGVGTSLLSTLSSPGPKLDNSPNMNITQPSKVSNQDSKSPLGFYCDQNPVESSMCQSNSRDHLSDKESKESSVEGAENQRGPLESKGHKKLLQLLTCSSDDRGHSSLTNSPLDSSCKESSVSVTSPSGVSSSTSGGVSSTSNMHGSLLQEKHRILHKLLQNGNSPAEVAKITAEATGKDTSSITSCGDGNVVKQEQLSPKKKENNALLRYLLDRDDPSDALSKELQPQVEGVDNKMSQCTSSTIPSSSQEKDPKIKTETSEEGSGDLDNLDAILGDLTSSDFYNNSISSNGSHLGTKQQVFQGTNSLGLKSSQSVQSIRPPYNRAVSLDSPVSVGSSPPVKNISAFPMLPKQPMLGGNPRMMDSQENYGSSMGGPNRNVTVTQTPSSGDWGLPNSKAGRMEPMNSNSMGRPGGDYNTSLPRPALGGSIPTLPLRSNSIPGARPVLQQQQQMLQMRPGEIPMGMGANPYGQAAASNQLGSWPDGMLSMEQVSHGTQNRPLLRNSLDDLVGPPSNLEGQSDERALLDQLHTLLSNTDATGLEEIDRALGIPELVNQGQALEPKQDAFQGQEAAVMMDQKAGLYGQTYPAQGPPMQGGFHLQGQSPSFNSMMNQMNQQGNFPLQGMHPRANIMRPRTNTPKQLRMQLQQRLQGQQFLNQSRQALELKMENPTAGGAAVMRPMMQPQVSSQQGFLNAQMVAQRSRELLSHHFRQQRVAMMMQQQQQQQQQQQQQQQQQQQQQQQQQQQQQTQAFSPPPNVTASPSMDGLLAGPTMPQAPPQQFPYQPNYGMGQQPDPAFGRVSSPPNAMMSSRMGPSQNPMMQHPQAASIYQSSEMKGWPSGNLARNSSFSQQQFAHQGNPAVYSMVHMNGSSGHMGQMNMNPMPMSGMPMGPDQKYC

[8] = target: Peroxisome proliferator-activated receptor gamma/Nuclear receptor coactivator 1 (Homo sapiens, UniProt P37231); test: as §1, with “1 (SRC-1)” for “2 (SRC-2)”, “assays (depositor defined):AID1300, AID1808, AID504735, AID631]” for “assays: 1297, 1032 ]”; type: protein assay
Sequence of Peroxisome proliferator-activated receptor gamma/Nuclear receptor coactivator 1 (P37231 whole entry): as the sequence (P37231 whole entry) above
Sequence of Peroxisome proliferator-activated receptor gamma/Nuclear receptor coactivator 1 (Q15788 whole entry, further chain): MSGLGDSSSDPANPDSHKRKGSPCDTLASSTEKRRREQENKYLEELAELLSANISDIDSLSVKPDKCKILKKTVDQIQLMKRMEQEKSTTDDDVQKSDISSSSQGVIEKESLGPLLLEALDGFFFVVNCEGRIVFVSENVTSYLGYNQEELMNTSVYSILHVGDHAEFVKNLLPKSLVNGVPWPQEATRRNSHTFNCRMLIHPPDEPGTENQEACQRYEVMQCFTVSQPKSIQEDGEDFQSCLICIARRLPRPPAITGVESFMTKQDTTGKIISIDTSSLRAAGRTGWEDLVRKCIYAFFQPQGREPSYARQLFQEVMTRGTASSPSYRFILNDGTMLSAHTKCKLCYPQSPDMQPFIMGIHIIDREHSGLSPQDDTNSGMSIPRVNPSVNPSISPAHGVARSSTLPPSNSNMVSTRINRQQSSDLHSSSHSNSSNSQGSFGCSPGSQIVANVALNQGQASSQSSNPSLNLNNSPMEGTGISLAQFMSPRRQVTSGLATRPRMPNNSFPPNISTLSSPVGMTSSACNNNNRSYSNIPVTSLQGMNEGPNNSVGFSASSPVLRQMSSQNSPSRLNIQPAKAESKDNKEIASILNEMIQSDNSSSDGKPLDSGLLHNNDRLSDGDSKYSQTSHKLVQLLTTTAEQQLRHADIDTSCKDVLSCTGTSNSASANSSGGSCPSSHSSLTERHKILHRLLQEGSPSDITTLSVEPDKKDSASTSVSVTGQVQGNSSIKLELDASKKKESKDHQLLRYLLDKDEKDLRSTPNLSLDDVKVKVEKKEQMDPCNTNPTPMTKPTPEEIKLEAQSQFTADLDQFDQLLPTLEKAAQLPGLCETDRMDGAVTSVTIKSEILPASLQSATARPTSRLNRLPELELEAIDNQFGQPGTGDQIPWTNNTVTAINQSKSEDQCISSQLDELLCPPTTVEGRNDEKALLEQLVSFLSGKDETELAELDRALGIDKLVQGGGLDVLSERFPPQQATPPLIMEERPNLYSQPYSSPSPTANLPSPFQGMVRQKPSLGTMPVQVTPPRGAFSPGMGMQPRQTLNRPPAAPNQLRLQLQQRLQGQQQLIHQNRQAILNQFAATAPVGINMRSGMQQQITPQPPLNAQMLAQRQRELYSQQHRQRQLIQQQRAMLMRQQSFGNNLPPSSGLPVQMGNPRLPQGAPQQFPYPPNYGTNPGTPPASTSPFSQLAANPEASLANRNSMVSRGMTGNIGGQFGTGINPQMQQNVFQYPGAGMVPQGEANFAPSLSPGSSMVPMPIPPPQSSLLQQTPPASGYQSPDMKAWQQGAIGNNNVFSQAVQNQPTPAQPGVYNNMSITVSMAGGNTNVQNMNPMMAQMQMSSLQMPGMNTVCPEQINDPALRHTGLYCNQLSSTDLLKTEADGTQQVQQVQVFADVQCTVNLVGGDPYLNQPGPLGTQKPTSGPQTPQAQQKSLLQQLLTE

[9] = viability loss in HepG2 hepatoma cells – cell-based, ATP luminescence, cherry-pick, activator set 2, cytotoxicity control, dose response (AID 1053143); type: functional
cells [10] = type: functional, cell-based
BJ [11] = test: BJ-TERT-LT-ST fibroblast viability loss – cell-based, RAS-independent, luminescence, dose response (AID 1935); type: functional; conditions: Homo sapiens;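 note: BJ fibroblasts immortalized with TERT plus LT and ST oncogenes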
[12] = Luminescence Cell-Based Dose Response HTS to Identify Inhibitors of 5'UTR Stem-Loop Driven Prion Protein mRNA Translation in H4 Neuroglioblastoma Cells. [Related pubchem assays: 1827 (Project Summary), 1813 (Primary HTS)]; type: functional
cells [13] = type: functional, cell-based; remark: listed apart in the source
[14] = luciferase reporter signal suppression in cells – H4 neuroglioma cells, luminescence, dose response (AID 1990); type: functional, cell-based
[15] = DRD fibroblast viability loss – cell-based, non-viral oncogenic, luminescence, dose response (AID 1934); type: functional; conditions: Homo sapiens
BJ [16] = test: BJ-TERT fibroblast viability loss – cell-based, RAS-independent, luminescence, dose response (AID 1933); type: functional; conditions: Homo sapiens
HEK293 = test: EBV LMP1 TES2 canonical NF-kB signalling blockers – cell-based, HEK293, luciferase, cherry-pick, dose response (AID 588343); type: functional; conditions: Homo sapiens
Nonstructural protein 1 = Nonstructural protein 1 (Influenza A virus, UniProt Q194T2); type: functional, Influenza A virus (A/California/07/2009(H1N1))
Sequence of Nonstructural protein 1 (Q194T2 whole entry): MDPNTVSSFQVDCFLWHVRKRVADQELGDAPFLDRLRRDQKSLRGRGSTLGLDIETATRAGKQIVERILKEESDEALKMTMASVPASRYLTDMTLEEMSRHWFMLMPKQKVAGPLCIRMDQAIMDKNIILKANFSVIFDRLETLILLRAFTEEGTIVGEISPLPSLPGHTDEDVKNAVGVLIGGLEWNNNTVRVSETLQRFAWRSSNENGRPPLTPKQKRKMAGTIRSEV

BJ [17] = test: cells; type: functional, cell-based; conditions: Homo sapiens
[18] = A Cell Based Secondary Assay To Explore Cytotoxicity of Compounds that Sensitize Mycobacterium Tuberculosis to Beta-Lactam Antibiotics.; type: functional

For `CC1(C)CC(=O)C2=C(C1)N(c1ccc(F)cc1)C(=O)CC2c1ccsc1` (stereo not given), the EC50 [1] was > 50 µM (active).

With `CC(=O)Nc1nc(-c2cccc3ccccc23)cs1` the EC50 [2] was < 0.1 µM (active), the EC50 [3] was > 60 µM (not active) and the EC50 (cells [4]) was 0.264 µM (active).

In the case of `Cc1ccccc1Oc1ccc(Oc2ccccc2C)nn1`, the EC50 [1] is reported as > 50 µM (active).

With `Cc1ccc2nc(-c3ccc(NC(=O)c4cccnc4)cc3)oc2c1` the AC50 [5] was 29.2 µM (active) and the AC50 (INS1) was 4.63 µM (active).

For `O=C(Nc1ccc(N2CCOCC2)c(Cl)c1)c1ccccc1F`, the EC50 [1] was > 50 µM (active).

For `C=CCn1c(NC(C)c2cc(Cl)ccc2O)nc2ccccc21` (stereo not given), the EC50 [6] was > 79.4 µM (not active), the EC50 [7] was 13.3 µM (not active) and the EC50 [1] was > 50 µM (active). The EC50 [8] was > 79.4 µM (inactive).

With `CCOC(=O)c1ccc2nc(NC(=O)c3ccco3)sc2c1` the AC50 [9] was 26 µM (active).

In the case of `C(=N\Nc1nc2ccccc2[nH]1)/c1cccc2cccnc12`, the EC50 (cells [10]) is reported as 97.6 µM (active), the EC50 (BJ [11]) is reported as 3.36 µM (active) and the EC50 [12] is reported as > 120 µM (not active). The EC50 (cells [13]) was 66.2 µM (active), the EC50 [14] was 5.09 µM (active) and the AC50 [9] was 26 µM (active). For the same compound, the EC50 [15] was 2.33 µM (active), the EC50 (BJ [16]) was 1.53 µM (active) and the AC50 (HEK293) was 2.96 µM (active). The IC50 (Nonstructural protein 1) was 13.4 µM (active) and the EC50 (BJ [17]) was 3.01 µM (active).

In the case of `Cn1c(/C=N/c2nc3ccccc3[nH]2)nc2ccccc21`, the CC50 [18] is reported as 37.4 µM (active).
